Test results reported in patent publication US9273075B2, “Prodrugs of 1,4-benzodiazepinone compounds” (BRISTOL-MYERS SQUIBB COMPANY, priority 2012, dated 2016).
In brackets after ≈: the same amount, converted by molar mass. Like-named read-outs stand apart in the source and are kept apart here.

Assays:
[1] = High Throughput Metabolic Stability Panel, mouse liver microsomes
[2] = test system: TALL1 Human T-cell acute lymphoblastic leukemia; assay: Human tumor xenograft in mice: TALL1; assay type: in vivo; conditions: FIG. 1; dosed intravenously QD×3, weekly×3; Compound A 3 mg/kg; Example 12 1.5, 3, 6 mg/kg; active = TGI≧50%
[3] = Thermodynamic Equilibrium Aqueous Solubility Assay; assay type: physicochemical; conditions: thermodynamic from solid
Protocol: Standards Preparation: The calibration standard was prepared by accurately weighing 0.5-0.7 mg of sample in 5 ml of methanol. If the material was not fully soluble in methanol, other solvents such as DMSO or mixed solvents were used.
Test Sample Preparation: An excess amount of powder prodrug was equilibrated with 1 mL of buffer (50 mM potassium phosphate, pH 6.5 and 50 mM sodium acetate, pH 4.0) in a 2 mL glass vial. The solution was sonicated and vortexed for ˜30 seconds. The vials were shaken at 300 rpm at room temperature for 24 hrs. The exact incubation time for a specific prodrug was based on the prior aqueous stability data. If the compound was stable in the buffer up to 24 hrs, then the solubility was measured after 24 hrs, otherwise kinetic solubility data was reported. The final saturated solution was then transferred to a 1.5 mL Eppendorf tube and centrifuged for ˜2 min. at 10000 rpms. The supernatant from the saturated solution was transferred to a glass HPLC vial and the solubility was analyzed by HPLC using a four point calibration curve.

[4] = Solution Stability Assay; assay type: physicochemical
Protocol: Acetonitrile Stock Solution: Acetonitrile Stock Solution of the prodrug was prepared by dissolving 1.5-2.0 mg of weighted compound in 5.0 mL of acetonitrile in a 5 mL volumetric flask.
pH 6.5 Buffer Working Solution: A pH 6.5 Buffer Working Solution of drug was prepared by adding 1.5 mL of the Acetonitrile Stock Solution to 3.5 mL of stability buffer (50 mM potassium phosphate, pH 6.5) in a 10 mL vial, and mixing. Using a 3 mL syringe, ˜3 mL of solution was withdrawn and filtered using the Gelman 0.45 μm syringe filter into a clean 1.5 mL LC vial. This filtered solution will was used to evaluate the prodrug degradation throughout the course of the study. Target concentration: 90-120 μg/mL (70% Aqueous: 30% Acetonitrile)
pH 4.0 Acidic Working Solution: A pH 4.0 Working Solution of drug was prepared by adding 1.5 mL of the Acetonitrile Stock Solution to 3.5 mL of stability buffer (50 mM sodium acetate, pH 4.0) in a 10 mL vial and mixing. Using a 3 mL syringe, ˜3 mL of solution was withdrawn and filtered using the Gelman 0.45 μm syringe filter into a clean 1.5 mL LC vial. This filtered solution was used to evaluate the prodrug degradation throughout the course of the study. Target concentration: 90-120 μg/mL (70% Aqueous: 30% Acetonitrile)
Experimental Methods: Following the sample preparation procedure described above a single sample (n=1) was prepared for each pH condition. The samples were then placed in an HPLC autosampler maintained at 37° C. and samples were analyzed over a 24 h period. Prodrug remaining (%) was reported relative to the initial peak area (t=0 h). In cases where a conversion to parent half-life could be calculated, a t1/2 was generated. Confirmation of the conversion to parent from the prodrug was obtained by LCMS and HPLC analysis of the final timepoint samples.
Typical LC parameters are shown below: • HPLC System: HP1100 Series, Hewlett Packard., Heated autosampler • Analytical column: Synergi 4 u Hydro C18, 4.6 mm×5.0 cm, PHENOMENEX® • Column temperature: 40° C. • Autosampler temp: 37° C. • Flow rate: 1.0 mL/min • Injection Volume: 10 μL • Mobile Phase: A: Acetonitrile • B: 0.1% Phosphoric acid in water • Run Time: 14.0 minutes Typical LCMS parameters are shown below: • LC-MS System: Surveyor HPLC system, ThermoFinnigan LCQ Deca XP Max (Ion trap) • Analytical column: Synergi 4 u Hydro C18, 4.6 mm×5.0 cm, PHENOMENEX® • Column temperature: 40° C. • Autosampler temp: 22° C. • Flow rate: 1.0 mL/min • Injection Volume: 5 μL • Mobile Phase: A: 95% Acetonitrile/5% 20 mM Ammonium Acetate • B: 5% Acetonitrile/95% 20 mM Ammonium Acetate LCQ Parameters: • Sheath Flow Rate: 81.64 • Aux/Sweep Flow Rate: 19.01 • Current (uA): 10.89 • Voltage (kV): 5.00 • Capillary (C): 348.10 • Capillary Voltage (V): 30.44

[5] = High Throughput Metabolic Stability Panel, rat microsomes; conditions: control compound values (expected ranges), 10 minutes
[6] = High Throughput Metabolic Stability Panel, dog microsomes; conditions: control compound values (expected ranges), 10 minutes
[7] = High Throughput Metabolic Stability Panel, monkey microsomes; conditions: control compound values (expected ranges), 10 minutes
[8] = potassium phosphate buffer, pH 6.5, aqueous buffer, read-out: Solubility (mg/mL) pH 6.5
[9] = sodium acetate buffer, pH 4, aqueous buffer, read-out: Solubility (mg/mL) pH 4.0
[10] = potassium phosphate buffer with 30% acetonitrile, pH 6.5, read-out: Stability (t1/2, h) pH 6.5 (converted)
[11] = sodium acetate buffer with 30% acetonitrile, pH 4, read-out: Stability (t1/2, h) pH 4.0 (converted)

Row | Compound | solubility at 24 h [3, 8] [mg/mL] | solubility at 24 h [3, 9] [mg/mL] | half-life [4, 10] [h] | half-life [4, 11] [h] | further results
1 | NC(=O)[C@@H](CCC(F)(F)F)[C@@H](CCC(F)(F)F)C(=O)N[C@H]1N=C(c2ccccc2)c2ccccc2NC1=O [Compound B, (2R,3S)—N-((3S)-2-Oxo-5-phenyl-2,3-dihydro-1H-1,4-benzodiazepin-3-yl)-2,3-bis(3,3,3-trifluoropropyl)succinamide] | – | – | – | – | 0.5 μM HLM (% Remaining) (0.5 μM compound, human liver microsomes, ten-minute incubation, NADPH): 88%; 0.5 μM MsLM (% Remaining) ([1]; 0.5 μM compound, mouse liver microsomes, ten-minute incubation, NADPH): 86%
2 | CN1C(=O)[C@@H](NC(=O)[C@H](CCC(F)(F)F)[C@H](CCC(F)(F)F)C(=O)NSC[C@H](N)C(=O)O)N=C(c2ccccc2)c2ccccc21 [Example 12, S-(((2S,3R)-6,6,6-Trifluoro-3-(((3S)-1-methyl-2-oxo-5-phenyl-2,3-dihydro-1H-1,4-benzodiazepin-3-yl)carbamoyl)-2-(3,3,3-trifluoropropyl)hexanoyl)amino)-L-cysteine] | 0.63 (≈ 932 µM) | 0.82 (≈ 1210 µM) | 251 | 376 | in vivo efficacy against TALL1, activity as defined by the tumor growth inhibition (TGI) [2]: active
3 | CN1CCN(CNC(=O)[C@@H](CCC(F)(F)F)[C@@H](CCC(F)(F)F)C(=O)N[C@H]2N=C(c3ccccc3)c3ccccc3N(C)C2=O)CC1 [Example 15, (2R,3S)—N-((3S)-1-Methyl-2-oxo-5-phenyl-2,3-dihydro-1H-1,4-benzodiazepin-3-yl)-N′-((4-methyl-1-piperazinyl)methyl)-2,3-bis(3,3,3-trifluoropropyl)succinamide] | > 0.41 | 0.27 (≈ 404 µM) | > 500 | > 500 | –
4 | CN1C(=O)[C@@H](NC(=O)[C@H](CCC(F)(F)F)[C@H](CCC(F)(F)F)C(=O)NCN2CCCCC2)N=C(c2ccccc2)c2ccccc21 [Example 16, (2R,3S)—N-((3S)-1-Methyl-2-oxo-5-phenyl-2,3-dihydro-1H-1,4-benzodiazepin-3-yl)-N′-(1-piperidinylmethyl)-2,3-bis(3,3,3-trifluoropropyl)succinamide] | 0.01 (≈ 15.3 µM) | 0.23 (≈ 352 µM) | 16 | 250 | –
5 | CN1C(=O)[C@@H](NC(=O)[C@H](CCC(F)(F)F)[C@H](CCC(F)(F)F)C(=O)NCN2CCC(N)CC2)N=C(c2ccccc2)c2ccccc21 [Example 17, (2S,3R)—N-((4-Amino-1-piperidinyl)methyl)-N′-((3S)-1-methyl-2-oxo-5-phenyl-2,3-dihydro-1H-1,4-benzodiazepin-3-yl)-2,3-bis(3,3,3-trifluoropropyl)succinamide] | > 1.9 | 0.56 (≈ 837 µM) | 300 | 250 | –
6 | CN1C(=O)[C@@H](NC(=O)[C@H](CCC(F)(F)F)[C@H](CCC(F)(F)F)C(=O)NCN2CCC(N(C)C)CC2)N=C(c2ccccc2)c2ccccc21 [Example 18, (2S,3R)—N-((4-(Dimethylamino)-1-piperidinyl)methyl)-N′-((3S)-1-methyl-2-oxo-5-phenyl-2,3-dihydro-1H-1,4-benzodiazepin-3-yl)-2,3-bis(3,3,3-trifluoropropyl)succinamide] | > 1.05 | 0.29 (≈ 416 µM) | > 500 | > 500 | –
7 | CN1C(=O)[C@@H](NC(=O)[C@H](CCC(F)(F)F)[C@H](CCC(F)(F)F)C(=O)NCN2CCC(O)CC2)N=C(c2ccccc2)c2ccccc21 [Example 19, (2S,3R)—N-((4-Hydroxy-1-piperidinyl)methyl)-N′-((3S)-1-methyl-2-oxo-5-phenyl-2,3-dihydro-1H-1,4-benzodiazepin-3-yl)-2,3-bis(3,3,3-trifluoropropyl)succinamide] | > 1.42 | 0.97 (≈ 1450 µM) | 56 | > 500 | –
8 | CN1C(=O)[C@@H](NC(=O)[C@H](CCC(F)(F)F)[C@H](CCC(F)(F)F)C(=O)NCN2CCC(O)C2)N=C(c2ccccc2)c2ccccc21 (stereo partly drawn) [Example 20, (2S,3R)—N-((3-Hydroxy-1-pyrrolidinyl)methyl)-N′-((3S)-1-methyl-2-oxo-5-phenyl-2,3-dihydro-1H-1,4-benzodiazepin-3-yl)-2,3-bis(3,3,3-trifluoropropyl)succinamide] | 0.39 (≈ 595 µM) | 0.43 (≈ 656 µM) | 15 | 97 | –
9 | CN1C(=O)[C@@H](NC(=O)[C@H](CCC(F)(F)F)[C@H](CCC(F)(F)F)C(=O)NCN2CCC(N(C)C)C2)N=C(c2ccccc2)c2ccccc21 (stereo partly drawn) [Example 21, (2S,3R)—N-((3-(Dimethylamino)-1-pyrrolidinyl)methyl)-N′-((3S)-1-methyl-2-oxo-5-phenyl-2,3-dihydro-1H-1,4-benzodiazepin-3-yl)-2,3-bis(3,3,3-trifluoropropyl)succinamide] | 0.63 (≈ 923 µM) | 0.64 (≈ 937 µM) | 376 | 334 | –
10 | CN1C(=O)[C@@H](NC(=O)[C@H](CCC(F)(F)F)[C@H](CCC(F)(F)F)C(=O)NCN2CCCC2)N=C(c2ccccc2)c2ccccc21 [Example 22, (2R,3S)—N-((3S)-1-Methyl-2-oxo-5-phenyl-2,3-dihydro-1H-1,4-benzodiazepin-3-yl)-N′-(1-pyrrolidinylmethyl)-2,3-bis(3,3,3-trifluoropropyl)succinamide] | 0.03 (≈ 46.9 µM) | > 0.39 | 7 | – | –
11 | CCc1nn(CCCN2CCN(c3cccc(Cl)c3)CC2)c(=O)n1CCOc1ccccc1 [Nefazodone] | – | – | – | – | Average Percent Remaining ± SD, Human (control compound values (expected ranges), human microsomes, 10 minutes): 0.4 ± 0.4%; Average Percent Remaining ± SD, Rat [5]: 0.7 ± 0.6%; Average Percent Remaining ± SD, Dog [6]: 0.4 ± 0.4%; Average Percent Remaining ± SD, Monkey [7]: 0.6 ± 0.5%; Average Percent Remaining ± SD, Mouse ([1]; control compound values (expected ranges), mouse microsomes, 10 minutes): 0.4 ± 0.3%
